target: T1, F508del (Homo sapiens, UniProt P13569, DEL508-508); assay: Protocol 1: membrane potential optical assay (FLIPR III, voltage sensing dye), identification of potentiator compounds; format: cell-based; conditions: Table 3, compounds of Table 1
T1 construct: expressed in transfected cells
How it was run: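 Gating potentiation is read as a membrane-potential fluorescence change (FLIPR III, voltage-sensing dye) after one forskolin addition under a Cl− gradient, with gluconate replacing chloride, pH 7.4. Cells are F508del-expressing NIH3T3 mouse fibroblasts held 24 h at 27 °C and exposed to compound before dye loading.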

T1 sequence (P13569 with tags, fused parts or gaps DEL508-508): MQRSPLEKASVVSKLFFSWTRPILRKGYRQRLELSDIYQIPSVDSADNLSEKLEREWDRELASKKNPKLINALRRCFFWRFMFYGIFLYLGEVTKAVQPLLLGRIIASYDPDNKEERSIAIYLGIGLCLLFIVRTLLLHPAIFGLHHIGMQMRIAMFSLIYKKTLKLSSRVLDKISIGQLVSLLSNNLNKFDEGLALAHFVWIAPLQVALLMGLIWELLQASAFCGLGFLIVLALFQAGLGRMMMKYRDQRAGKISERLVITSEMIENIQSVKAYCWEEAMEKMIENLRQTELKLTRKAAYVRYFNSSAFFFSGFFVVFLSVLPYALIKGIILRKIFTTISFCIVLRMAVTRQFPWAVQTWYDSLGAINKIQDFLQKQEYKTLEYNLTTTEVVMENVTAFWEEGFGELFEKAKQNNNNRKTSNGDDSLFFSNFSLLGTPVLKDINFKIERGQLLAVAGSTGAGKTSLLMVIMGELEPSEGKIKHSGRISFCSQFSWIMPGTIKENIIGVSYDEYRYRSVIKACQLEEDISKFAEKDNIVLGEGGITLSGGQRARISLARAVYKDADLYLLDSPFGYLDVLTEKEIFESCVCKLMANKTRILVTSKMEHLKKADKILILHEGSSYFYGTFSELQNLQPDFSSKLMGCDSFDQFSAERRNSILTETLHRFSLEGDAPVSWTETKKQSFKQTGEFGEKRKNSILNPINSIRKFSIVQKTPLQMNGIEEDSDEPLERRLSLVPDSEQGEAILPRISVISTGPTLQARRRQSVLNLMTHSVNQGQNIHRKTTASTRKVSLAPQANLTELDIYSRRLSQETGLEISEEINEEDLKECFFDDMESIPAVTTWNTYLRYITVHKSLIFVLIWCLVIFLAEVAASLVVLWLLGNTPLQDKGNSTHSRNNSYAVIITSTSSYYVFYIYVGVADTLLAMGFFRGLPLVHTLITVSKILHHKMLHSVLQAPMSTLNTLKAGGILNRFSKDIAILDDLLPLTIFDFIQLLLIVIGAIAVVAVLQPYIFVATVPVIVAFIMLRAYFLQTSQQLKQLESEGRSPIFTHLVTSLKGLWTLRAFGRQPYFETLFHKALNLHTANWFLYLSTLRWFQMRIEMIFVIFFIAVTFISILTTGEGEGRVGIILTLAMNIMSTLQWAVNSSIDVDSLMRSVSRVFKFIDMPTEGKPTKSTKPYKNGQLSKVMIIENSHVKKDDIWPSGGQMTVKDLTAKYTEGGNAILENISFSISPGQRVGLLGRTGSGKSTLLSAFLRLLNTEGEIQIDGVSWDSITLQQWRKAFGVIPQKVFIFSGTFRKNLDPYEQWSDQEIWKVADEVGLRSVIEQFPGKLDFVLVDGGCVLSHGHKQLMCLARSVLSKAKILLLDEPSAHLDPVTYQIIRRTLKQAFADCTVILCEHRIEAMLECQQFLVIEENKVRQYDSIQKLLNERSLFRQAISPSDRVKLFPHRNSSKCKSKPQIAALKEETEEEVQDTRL

CC(C)Oc1ccc(-c2ccc(C(=O)NS(=O)(=O)c3cccc(N)n3)c(N3CCC(OCc4ccccc4)CC3)n2)cn1 [Compound 1012, N-[(6-amino-2-pyridyl)sulfonyl]-2-(4-benzyloxy-1-piperidyl)-6-(6-isopropoxy-3-pyridyl)pyridine-3-carboxamide] was tested. Which EC30 did it give?
Its EC30 is “+++ (“+++” means <3 uM)”.

For CC(C)COc1cc(F)cc(-c2ccc(C(=O)NS(=O)(=O)c3cccc(N)n3)c(OC3CCC3)n2)c1 [Compound 1580, N-[(6-amino-2-pyridyl)sulfonyl]-2-(cyclobutoxy)-6-(3-fluoro-5-isobutoxy-phenyl)pyridine-3-carboxamide], which EC30 is on record?
The EC30 was “+++ (“+++” means <3 uM)”.

How did the EC30 turn out when Cc1cc(C)c(Oc2nc(-c3cnc(NC4CC4)nc3)ccc2C(=O)NS(=O)(=O)c2cccc(N)n2)c(C)c1 [Compound 1126, N-[(6-amino-2-pyridyl)sulfonyl]-6-[2-(cyclopropylamino)pyrimidin-5-yl]-2-(2,4,6-trimethylphenoxy)pyridine-3-carboxamide] was run?
The EC30 was “+ (“+” means greater than 10 uM)”.

CC(Cc1ccccc1)Oc1nc(C(C)(C)C)ccc1C(=O)NS(=O)(=O)c1cccc(N)n1 (centres unmarked) [Compound 1314, N-[(6-amino-2-pyridyl)sulfonyl]-6-tert-butyl-2-(1-methyl-2-phenyl-ethoxy)pyridine-3-carboxamide] was tested. Which EC30 did it give?
Its EC30 is “+++ (“+++” means <3 uM)”.

With CC(C)COc1cc(F)cc(-c2ccc(C(=O)NS(=O)(=O)c3cccc(N)n3)c(OC3CCCCC3)n2)c1 [Compound 1477, N-[(6-amino-2-pyridyl)sulfonyl]-2-(cyclohexoxy)-6-(3-fluoro-5-isobutoxy-phenyl)pyridine-3-carboxamide] as the molecule, how does the EC30 read?
The EC30 was “+++ (“+++” means <3 uM)”.

CC1CN(c2nc(-c3cc(F)cc(OC(C)C)c3)ccc2C(=O)NS(=O)(=O)c2cccc(N)n2)C(C)(C)C1 (centres unmarked) [Compound 972, N-[(6-amino-2-pyridyl)sulfonyl]-6-(3-fluoro-5-isopropoxy-phenyl)-2-(2,2,4-trimethylpyrrolidin-1-yl)pyridine-3-carboxamide] was tested. Which EC30 did it give?
The EC30 was “+++ (“+++” means <3 uM)”.

Cc1cc(C)c(Oc2nc(-c3ccc4c(cnn4C)c3)ccc2C(=O)NS(=O)(=O)c2cccc(N)n2)c(C)c1 [Compound 1276, N-[(6-amino-2-pyridyl)sulfonyl]-6-(1-methylindazol-5-yl)-2-(2,4,6-trimethylphenoxy)pyridine-3-carboxamide] was tested. Which EC30 did it give?
Its EC30 is “++ (“++” means between 3 uM and 10 uM)”.

For CC(C)COc1cc(F)cc(-c2ccc(C(=O)NS(=O)(=O)c3cccc(N)n3)c(N(CC3CC3)C(C)C)n2)c1 [Compound 1157, N-[(6-amino-2-pyridyl)sulfonyl]-2-[cyclopropylmethyl(isopropyl)amino]-6-(3-fluoro-5-isobutoxy-phenyl)pyridine-3-carboxamide], which EC30 is on record?
Its EC30 is “+++ (“+++” means <3 uM)”.

CC(=O)Nc1ncccc1S(=O)(=O)NC(=O)c1ccc(-c2ccc(OC(C)C)nc2)nc1N1C[C@@H](C)CC1(C)C [Compound 1976, N-[(2-acetamido-3-pyridyl)sulfonyl]-6-(6-isopropoxy-3-pyridyl)-2-[(4S)-2,2,4-trimethylpyrrolidin-1-yl]pyridine-3-carboxamide] was tested. Which EC30 did it give?
Its EC30 is “+++ (“+++” means <3 uM)”.

COc1cccc(S(=O)(=O)NC(=O)c2ccc(-c3cc(F)cc(OCC(C)C)c3)nc2N2CC(C)CC2(C)C)c1 (centres unmarked) [Compound 1171, 6-(3-fluoro-5-isobutoxy-phenyl)-N-(3-methoxyphenyl)sulfonyl-2-(2,2,4-trimethylpyrrolidin-1-yl)pyridine-3-carboxamide] was tested. Which EC30 did it give?
Its EC30 is “+++ (“+++” means <3 uM)”.

How did the EC30 turn out when Cc1cc(C)c(Oc2nc(-c3ccc(CN(C)C)cc3)ccc2C(=O)NS(=O)(=O)c2cccc(N)n2)c(C)c1 [Compound 962, N-[(6-amino-2-pyridyl)sulfonyl]-6-[4-(dimethylaminomethyl)phenyl]-2-(2,4,6-trimethylphenoxy)pyridine-3-carboxamide] was run?
Its EC30 is “++ (“++” means between 3 uM and 10 uM)”.

Which EC30 does the source give for C[C@@H]1CN(c2nc(C3=CCC(C(F)(F)F)CC3)ccc2C(=O)NS(=O)(=O)c2cccc(N)n2)C(C)(C)C1 (stereo partly drawn) [Compound 1664, N-[(6-amino-2-pyridyl)sulfonyl]-6-[4-(trifluoromethyl)cyclohexen-1-yl]-2-[(4S)-2,2,4-trimethylpyrrolidin-1-yl]pyridine-3-carboxamide] here?
The EC30 was “+++ (“+++” means <3 uM)”.

Which EC30 does the source give for Cc1cc(C)c(Oc2nc(-c3cccc4c3OCO4)ccc2C(=O)NS(=O)(=O)c2cccc(N)n2)c(C)c1 [Compound 974, N-[(6-amino-2-pyridyl)sulfonyl]-6-(1,3-benzodioxol-4-yl)-2-(2,4,6-trimethylphenoxy)pyridine-3-carboxamide] here?
Its EC30 is “+++ (“+++” means <3 uM)”.

How did the EC30 turn out when COc1nc(C)ccc1S(=O)(=O)NC(=O)c1ccc(C(C)(C)C)nc1Oc1c(C)cc(C)cc1C [Compound 1153, 6-tert-butyl-N-[(2-methoxy-6-methyl-3-pyridyl)sulfonyl]-2-(2,4,6-trimethylphenoxy)pyridine-3-carboxamide] was run?
Its EC30 is “+++ (“+++” means <3 uM)”.

Which EC30 does the source give for CCCCCN1CCN(c2cccc(S(=O)(=O)NC(=O)c3cccnc3N3CC(C)CC3(C)C)n2)CC1 (centres unmarked) [Compound 1985, N—[[6-(4-pentylpiperazin-1-yl)-2-pyridyl]sulfonyl]-2-(2,2,4-trimethylpyrrolidin-1-yl)pyridine-3-carboxamide] here?
The EC30 was “++ (“++” means between 3 uM and 10 uM)”.

How did the EC30 turn out when CC(C)COc1cc(F)cc(-c2ccc(C(=O)NS(=O)(=O)c3cccnc3N)c(N3C[C@H](C)CC3(C)C)n2)c1 [Compound 1444, N-[(2-amino-3-pyridyl)sulfonyl]-6-(3-fluoro-5-isobutoxy-phenyl)-2-[(4R)-2,2,4-trimethylpyrrolidin-1-yl]pyridine-3-carboxamide] was run?
The EC30 was “+++ (“+++” means <3 uM)”.

Which EC30 does the source give for Cn1ccc2cccc(Oc3nc(C(C)(C)C)ccc3C(=O)NS(=O)(=O)c3cccc(N)n3)c21 [Compound 1071, N-[(6-amino-2-pyridyl)sulfonyl]-6-tert-butyl-2-(1-methylindol-7-yl)oxy-pyridine-3-carboxamide] here?
Its EC30 is “+++ (“+++” means <3 uM)”.

Which EC30 does the source give for CC(C)c1ccc(C(=O)NS(=O)(=O)c2cccc(N)n2)c(N2C[C@@H](C)CC2(C)C)n1 [Compound 1505, N-[(6-amino-2-pyridyl)sulfonyl]-6-isopropyl-2-[(4S)-2,2,4-trimethylpyrrolidin-1-yl]pyridine-3-carboxamide] here?
Its EC30 is “+++ (“+++” means <3 uM)”.

With COc1nccc(-c2ccc(C(=O)NS(=O)(=O)c3cccc(N)n3)c(Oc3c(C)cc(C)cc3C)n2)c1Cl [Compound 1284, N-[(6-amino-2-pyridyl)sulfonyl]-6-(3-chloro-2-methoxy-4-pyridyl)-2-(2,4,6-trimethylphenoxy)pyridine-3-carboxamide] as the molecule, how does the EC30 read?
The EC30 was “+++ (“+++” means <3 uM)”.

With Cc1cc(C)c(Oc2nc(-c3cc(C)nn3C)ccc2C(=O)NS(=O)(=O)c2cccc(N)n2)c(C)c1 [Compound 938, N-[(6-amino-2-pyridyl)sulfonyl]-6-(2,5-dimethylpyrazol-3-yl)-2-(2,4,6-trimethylphenoxy)pyridine-3-carboxamide] as the molecule, how does the EC30 read?
The EC30 was “++ (“++” means between 3 uM and 10 uM)”.

With C[C@@H]1CC[C@H](C)N1c1nc(-c2ccc(F)cc2)ccc1C(=O)NS(=O)(=O)c1cccc(N)n1 [Compound 1029, N-[(6-amino-2-pyridyl)sulfonyl]-2-[(2S,5R)-2,5-dimethylpyrrolidin-1-yl]-6-(4-fluorophenyl)pyridine-3-carboxamide] as the molecule, how does the EC30 read?
The EC30 was “++ (“++” means between 3 uM and 10 uM)”.

How did the EC30 turn out when CC(C)COc1cc(F)cc(-c2ccc(C(=O)NS(=O)(=O)c3cccc(N)n3)c(N3CCC(C)C(C)C3)n2)c1 (single isomer, unassigned) [Compound 1863, N-[(6-amino-2-pyridyl)sulfonyl]-2-(3,4-dimethyl-1-piperidyl)-6-(3-fluoro-5-isobutoxy-phenyl)pyridine-3-carboxamide] was run?
Its EC30 is “+++ (“+++” means <3 uM)”.

With CC(C)COc1cc(F)cc(-c2ccc(C(=O)NS(=O)(=O)c3cccc(N)n3)c(N3CCCC(C)(C)C3)n2)c1 [Compound 887, N-[(6-amino-2-pyridyl)sulfonyl]-2-(3,3-dimethyl-1-piperidyl)-6-(3-fluoro-5-isobutoxy-phenyl)pyridine-3-carboxamide] as the molecule, how does the EC30 read?
The EC30 was “+++ (“+++” means <3 uM)”.

Which EC30 does the source give for C[C@@H]1CN(c2nc(C3=CCCCO3)ccc2C(=O)NS(=O)(=O)c2cccnc2N)C(C)(C)C1 [Compound 1699, N-[(2-amino-3-pyridyl)sulfonyl]-6-(3,4-dihydro-2H-pyran-6-yl)-2-[(4S)-2,2,4-trimethylpyrrolidin-1-yl]pyridine-3-carboxamide] here?
The EC30 was “+++ (“+++” means <3 uM)”.

For CC(C)Oc1ccc(-c2ccc(C(=O)NS(=O)(=O)c3cccc(N)n3)c(N3C[C@@H](C)CC3(C)C)n2)cn1 [Compound 811, N-[(6-amino-2-pyridyl)sulfonyl]-6-(6-isopropoxy-3-pyridyl)-2-[(4S)-2,2,4-trimethylpyrrolidin-1-yl]pyridine-3-carboxamide], which EC30 is on record?
Its EC30 is “+++ (“+++” means <3 uM)”.

With CC(C)COc1cc(F)cc(-c2ccc(C(=O)NS(=O)(=O)c3nc(N)cs3)c(N3CC(C)CC3(C)C)n2)c1 (centres unmarked) [Compound 842, N-(4-aminothiazol-2-yl)sulfonyl-6-(3-fluoro-5-isobutoxy-phenyl)-2-(2,2,4-trimethylpyrrolidin-1-yl)pyridine-3-carboxamide] as the molecule, how does the EC30 read?
Its EC30 is “+++ (“+++” means <3 uM)”.

Which EC30 does the source give for CC(C)COc1cc(F)cc(-c2ccc(C(=O)NS(=O)(=O)c3cccc(N)n3)c(O[C@H]3CCOC3)n2)c1 [Compound 1464] here?
Its EC30 is “+++ (“+++” means <3 uM)”.

Which EC30 does the source give for Cc1cc(C)c(Oc2nc(C(C)(C)C)ccc2C(=O)N=S(N)(=O)c2cccc(N)n2)c(C)c1 (centres unmarked) [Compound 1481, N-[amino-(6-amino-2-pyridyl)-oxo-$1^6-sulfanylidene]-6-tert-butyl-2-(2,4,6-trimethylphenoxy)pyridine-3-carboxamide] here?
Its EC30 is “+++ (“+++” means <3 uM)”.

CCC1CCC(C)N1c1nc(-c2cc(F)cc(OCC(C)C)c2)ccc1C(=O)NS(=O)(=O)c1cccc(N)n1 (centres unmarked) [Compound 1222, N-[(6-amino-2-pyridyl)sulfonyl]-2-(2-ethyl-5-methyl-pyrrolidin-1-yl)-6-(3-fluoro-5-isobutoxy-phenyl)pyridine-3-carboxamide] was tested. Which EC30 did it give?
The EC30 was “+++ (“+++” means <3 uM)”.

— patent publication US10758534B2 (Vertex Pharmaceuticals Incorporated, priority 2014, dated 2020)
